Results as given in ChEMBL document CHEMBL1201862, “PubChem BioAssay data set” (2004).
Calls of active or inactive are those of the source.

Legend:
[1] = tested on: Vero; experiment: cells; format: functional; details: Chlorocebus sabaeus
[2] = tested on: P388; experiment: cells; format: functional; details: Mus musculus
[3] = tested on: P388/ADR; experiment: cells; format: functional; details: Mus musculus
[4] = tested on: SN12K1; experiment: cells; format: functional; details: Homo sapiens
[5] = molecular target: Nonstructural protein 1 (Influenza A virus, UniProt Q194T2); format: functional, Influenza A virus (A/California/07/2009(H1N1))
Nonstructural protein 1, sequence (Q194T2 whole entry): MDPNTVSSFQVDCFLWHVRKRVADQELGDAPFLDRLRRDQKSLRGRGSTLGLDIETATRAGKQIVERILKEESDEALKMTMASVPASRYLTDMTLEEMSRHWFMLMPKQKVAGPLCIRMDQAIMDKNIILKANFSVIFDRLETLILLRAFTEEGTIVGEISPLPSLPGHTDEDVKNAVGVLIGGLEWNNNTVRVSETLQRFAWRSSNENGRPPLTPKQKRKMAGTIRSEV

[6] = molecular target: Large T antigen (Simian virus 40, UniProt P03070); format: functional, Betapolyomavirus macacae;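 further: Confirmatory-stage PubChem screen for compounds that inhibit SV40 T antigen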
Large T antigen, sequence (P03070 whole entry): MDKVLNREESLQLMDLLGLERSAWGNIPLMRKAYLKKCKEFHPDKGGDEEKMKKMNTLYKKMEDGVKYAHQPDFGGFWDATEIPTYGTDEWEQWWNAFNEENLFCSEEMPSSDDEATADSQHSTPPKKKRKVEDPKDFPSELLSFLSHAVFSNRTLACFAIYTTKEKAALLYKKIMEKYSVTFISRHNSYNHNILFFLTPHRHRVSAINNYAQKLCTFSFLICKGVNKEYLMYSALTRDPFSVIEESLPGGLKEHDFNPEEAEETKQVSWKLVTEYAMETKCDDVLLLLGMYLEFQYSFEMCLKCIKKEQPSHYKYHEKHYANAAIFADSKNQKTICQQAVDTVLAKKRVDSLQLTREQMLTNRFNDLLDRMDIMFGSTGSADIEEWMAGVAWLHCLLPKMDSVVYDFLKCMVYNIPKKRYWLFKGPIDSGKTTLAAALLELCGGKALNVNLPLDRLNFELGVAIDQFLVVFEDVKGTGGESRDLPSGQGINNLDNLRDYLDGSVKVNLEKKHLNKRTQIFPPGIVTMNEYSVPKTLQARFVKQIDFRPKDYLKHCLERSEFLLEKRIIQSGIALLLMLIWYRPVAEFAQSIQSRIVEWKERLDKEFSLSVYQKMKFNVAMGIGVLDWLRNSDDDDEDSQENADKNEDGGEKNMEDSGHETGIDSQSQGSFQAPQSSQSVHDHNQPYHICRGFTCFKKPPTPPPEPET

[7] = molecular target: FAD-linked sulfhydryl oxidase ALR (Homo sapiens, UniProt P55789); experiment: ALR-catalysed DTT oxidation blockers – biochemical, H2O2 detection, luminescence, cherry-pick, dose response (AID 493248)
FAD-linked sulfhydryl oxidase ALR, sequence (P55789 whole entry): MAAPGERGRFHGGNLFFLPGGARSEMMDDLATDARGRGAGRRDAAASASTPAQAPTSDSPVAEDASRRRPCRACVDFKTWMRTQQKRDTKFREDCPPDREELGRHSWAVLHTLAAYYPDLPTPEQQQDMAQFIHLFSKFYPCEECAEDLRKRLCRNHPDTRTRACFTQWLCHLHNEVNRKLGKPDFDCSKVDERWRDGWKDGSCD

[8] = molecular target: Glyceraldehyde-3-phosphate dehydrogenase (Homo sapiens, UniProt P04406)
Glyceraldehyde-3-phosphate dehydrogenase, sequence (P04406 whole entry): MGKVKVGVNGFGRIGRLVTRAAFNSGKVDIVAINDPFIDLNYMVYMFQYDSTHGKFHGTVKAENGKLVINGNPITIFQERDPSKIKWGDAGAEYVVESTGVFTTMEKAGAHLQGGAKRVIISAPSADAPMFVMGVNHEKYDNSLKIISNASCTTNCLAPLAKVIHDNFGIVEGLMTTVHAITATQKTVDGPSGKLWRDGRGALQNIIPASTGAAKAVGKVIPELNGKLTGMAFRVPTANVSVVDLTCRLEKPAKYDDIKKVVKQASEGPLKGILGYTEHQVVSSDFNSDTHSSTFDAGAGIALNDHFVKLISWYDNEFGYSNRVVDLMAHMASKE

[9] = molecular target: Cytochrome P450 2C9 (Homo sapiens, UniProt P11712)
Cytochrome P450 2C9, sequence (P11712 whole entry): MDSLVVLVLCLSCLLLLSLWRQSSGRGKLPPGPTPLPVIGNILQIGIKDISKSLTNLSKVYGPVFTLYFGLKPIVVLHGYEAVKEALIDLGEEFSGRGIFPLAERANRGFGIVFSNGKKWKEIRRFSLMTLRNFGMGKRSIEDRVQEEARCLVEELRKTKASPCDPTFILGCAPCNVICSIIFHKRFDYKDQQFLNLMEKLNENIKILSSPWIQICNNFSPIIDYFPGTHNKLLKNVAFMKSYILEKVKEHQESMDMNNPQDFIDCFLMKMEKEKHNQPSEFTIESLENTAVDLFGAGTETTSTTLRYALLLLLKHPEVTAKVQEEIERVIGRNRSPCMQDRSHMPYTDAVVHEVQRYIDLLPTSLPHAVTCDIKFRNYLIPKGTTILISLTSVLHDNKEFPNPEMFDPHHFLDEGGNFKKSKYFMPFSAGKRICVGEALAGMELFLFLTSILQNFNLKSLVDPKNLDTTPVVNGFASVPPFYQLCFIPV

[10] = molecular target: Cytochrome P450 2C19 (Homo sapiens, UniProt P33261); experiment: Cytochrome panel assay with activity outcomes. Panel member name: p450-cyp2c19 Compounds with AC50 equal or less than 10 uM are considered active; format: functional
Cytochrome P450 2C19, sequence (P33261 whole entry): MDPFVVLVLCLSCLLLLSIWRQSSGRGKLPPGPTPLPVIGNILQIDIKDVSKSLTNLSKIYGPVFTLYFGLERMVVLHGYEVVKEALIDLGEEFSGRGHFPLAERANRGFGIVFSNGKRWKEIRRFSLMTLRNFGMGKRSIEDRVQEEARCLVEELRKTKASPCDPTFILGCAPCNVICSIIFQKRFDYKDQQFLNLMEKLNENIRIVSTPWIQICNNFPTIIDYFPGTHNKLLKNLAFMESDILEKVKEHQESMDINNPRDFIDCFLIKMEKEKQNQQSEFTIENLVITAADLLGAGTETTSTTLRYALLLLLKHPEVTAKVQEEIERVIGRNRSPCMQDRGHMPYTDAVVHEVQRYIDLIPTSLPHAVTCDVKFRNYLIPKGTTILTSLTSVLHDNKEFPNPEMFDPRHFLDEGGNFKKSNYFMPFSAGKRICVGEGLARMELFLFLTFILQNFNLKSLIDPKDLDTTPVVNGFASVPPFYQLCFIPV

[11] = fluconazole-exposed Candida albicans growth modulators – fluorescence, retest, confirmation (AID 2467); format: functional, cell-based
[12] = NIH-3T3 fibroblast cytotoxicity, dose response, cytotoxicity control, cell-based, fluorescence, Alamar Blue, secondary assay (AID 2327); format: functional;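 further: NIH-3T3 mouse fibroblasts cultured with fluconazole at 8 µg/mL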
[13] = viability of uninfected HEp-2 cells – cell-based, HTS, cytotoxicity control for RSV inhibitor project, dose response (AID 2410); format: functional; details: human respiratory syncytial virus
[14] = molecular target: Cytochrome P450 2D6 (Homo sapiens, UniProt P10635);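 further: CYP2D6 member of a cytochrome P450 panel assay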
Cytochrome P450 2D6, sequence (P10635 whole entry): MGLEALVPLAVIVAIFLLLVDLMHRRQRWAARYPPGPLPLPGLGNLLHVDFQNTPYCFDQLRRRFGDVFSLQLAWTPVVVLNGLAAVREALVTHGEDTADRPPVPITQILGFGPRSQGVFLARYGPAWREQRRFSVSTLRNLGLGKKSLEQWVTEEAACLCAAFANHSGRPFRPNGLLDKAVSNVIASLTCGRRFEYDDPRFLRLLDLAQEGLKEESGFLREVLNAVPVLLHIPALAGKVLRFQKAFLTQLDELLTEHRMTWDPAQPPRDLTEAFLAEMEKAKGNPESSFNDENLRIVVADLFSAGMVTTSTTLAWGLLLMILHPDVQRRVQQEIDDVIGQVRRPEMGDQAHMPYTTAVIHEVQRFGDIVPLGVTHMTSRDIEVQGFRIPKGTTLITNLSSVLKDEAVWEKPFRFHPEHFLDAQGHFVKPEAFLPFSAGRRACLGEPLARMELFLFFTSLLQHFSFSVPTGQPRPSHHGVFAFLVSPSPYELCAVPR

[15] = molecular target: Cytochrome P450 3A4 (Homo sapiens, UniProt P08684);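 further: CYP3A4 tested as one member of a cytochrome P450 panel screen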
Cytochrome P450 3A4, sequence (P08684 whole entry): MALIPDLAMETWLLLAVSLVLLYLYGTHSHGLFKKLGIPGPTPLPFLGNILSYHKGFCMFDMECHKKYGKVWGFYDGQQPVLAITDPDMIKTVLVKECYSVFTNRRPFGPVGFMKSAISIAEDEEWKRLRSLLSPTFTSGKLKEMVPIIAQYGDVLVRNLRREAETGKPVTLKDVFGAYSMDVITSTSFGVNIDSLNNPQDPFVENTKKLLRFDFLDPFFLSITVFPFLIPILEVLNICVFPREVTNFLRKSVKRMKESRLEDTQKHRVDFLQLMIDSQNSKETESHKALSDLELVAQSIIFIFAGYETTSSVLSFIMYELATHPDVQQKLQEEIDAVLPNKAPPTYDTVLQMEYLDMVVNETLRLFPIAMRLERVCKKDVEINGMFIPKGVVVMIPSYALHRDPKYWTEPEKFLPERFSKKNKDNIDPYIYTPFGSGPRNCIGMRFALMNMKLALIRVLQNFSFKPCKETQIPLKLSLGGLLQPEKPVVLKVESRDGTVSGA

[16] = Luminescence Cell-Based Dose Retest to Confirm Inhibitors of Cancer Stem Cells. [Related pubchem assays (depositor defined):AID2717, AID2721]; format: functional; details: Homo sapiens
[17] = molecular target: Genome polyprotein (dengue virus type 2, UniProt P29990); experiment: flavivirus cap methylation enzyme inhibition – biochemical, confirmation dose response, primary screen (AID 588689); format: functional
Genome polyprotein, sequence (P29990 2492-3391 limits assumed): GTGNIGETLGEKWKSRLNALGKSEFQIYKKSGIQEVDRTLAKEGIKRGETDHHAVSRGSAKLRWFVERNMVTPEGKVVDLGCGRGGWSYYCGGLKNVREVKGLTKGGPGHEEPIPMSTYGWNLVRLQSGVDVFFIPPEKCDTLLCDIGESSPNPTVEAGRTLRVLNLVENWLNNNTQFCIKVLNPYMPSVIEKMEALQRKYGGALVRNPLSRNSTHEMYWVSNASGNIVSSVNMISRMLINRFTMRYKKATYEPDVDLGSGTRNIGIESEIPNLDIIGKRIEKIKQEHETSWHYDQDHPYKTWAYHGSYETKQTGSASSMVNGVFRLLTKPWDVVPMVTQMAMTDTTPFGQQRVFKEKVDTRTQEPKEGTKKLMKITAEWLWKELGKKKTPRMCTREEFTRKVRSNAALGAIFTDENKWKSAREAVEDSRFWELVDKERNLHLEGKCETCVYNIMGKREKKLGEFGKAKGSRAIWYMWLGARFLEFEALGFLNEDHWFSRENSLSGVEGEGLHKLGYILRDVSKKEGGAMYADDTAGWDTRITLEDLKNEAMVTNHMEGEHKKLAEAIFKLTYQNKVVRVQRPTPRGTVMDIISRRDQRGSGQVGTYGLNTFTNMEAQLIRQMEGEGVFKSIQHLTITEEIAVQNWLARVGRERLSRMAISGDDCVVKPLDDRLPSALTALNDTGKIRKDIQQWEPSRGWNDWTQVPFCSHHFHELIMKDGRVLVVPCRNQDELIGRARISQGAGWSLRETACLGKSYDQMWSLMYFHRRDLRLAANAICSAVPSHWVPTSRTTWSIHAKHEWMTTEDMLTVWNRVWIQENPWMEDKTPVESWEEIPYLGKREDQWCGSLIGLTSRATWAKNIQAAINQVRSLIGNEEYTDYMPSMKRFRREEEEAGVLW

[18] = molecular target: T1, Ubiquitin-conjugating enzyme E2 N (Homo sapiens, UniProt P61088); format: functional;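 further: Dose-response confirmation in a TR-FRET assay detecting UBC13-driven polyubiquitin chain formation, inhibition measured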
T1 sequence (P61088 whole entry): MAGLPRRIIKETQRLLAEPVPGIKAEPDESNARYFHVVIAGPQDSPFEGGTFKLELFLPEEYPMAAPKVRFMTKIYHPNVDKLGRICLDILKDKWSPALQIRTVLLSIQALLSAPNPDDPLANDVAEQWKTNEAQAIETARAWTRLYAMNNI

[19] = molecular target: T2, Polyadenylate-binding protein 1 (Homo sapiens, UniProt P11940); experiment: MLLE binding blockers, Cy5 peptide tracer – biochemical, fluorescence polarization, Cy5-PAM2 peptide, secondary, miRNA deadenylation inhibitor project, dose response (AID 602260); format: functional; details: read-out: IC50_Mean
T2 sequence (P11940 whole entry, the tested form may be a part): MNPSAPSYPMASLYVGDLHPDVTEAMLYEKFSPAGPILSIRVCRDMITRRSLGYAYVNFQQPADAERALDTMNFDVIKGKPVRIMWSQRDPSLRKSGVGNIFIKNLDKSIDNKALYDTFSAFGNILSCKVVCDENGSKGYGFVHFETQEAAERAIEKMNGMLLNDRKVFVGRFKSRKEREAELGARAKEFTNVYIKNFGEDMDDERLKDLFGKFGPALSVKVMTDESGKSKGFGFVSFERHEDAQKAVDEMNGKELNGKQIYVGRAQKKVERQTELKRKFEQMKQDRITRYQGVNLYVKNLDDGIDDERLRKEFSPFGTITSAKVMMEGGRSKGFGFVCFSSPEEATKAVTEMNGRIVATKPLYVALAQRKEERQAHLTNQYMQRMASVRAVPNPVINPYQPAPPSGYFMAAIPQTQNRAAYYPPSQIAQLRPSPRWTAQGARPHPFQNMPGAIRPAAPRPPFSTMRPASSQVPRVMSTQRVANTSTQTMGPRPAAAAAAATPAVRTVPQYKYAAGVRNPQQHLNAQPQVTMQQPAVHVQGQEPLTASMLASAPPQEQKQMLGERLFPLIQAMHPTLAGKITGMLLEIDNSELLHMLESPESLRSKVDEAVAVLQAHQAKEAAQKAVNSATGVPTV

[20] = molecular target: T2, Polyadenylate-binding protein 1; experiment: MLLE domain peptide-binding blockers, IC50 – biochemical, fluorescence polarization, FITC-PAM2 peptide, dose response (AID 602259); format: functional; details: read-out: IC50_Mean
[21] = cells; format: functional, cell-based
[22] = cells; format: functional, cell-based; remark: listed apart in the source

## COc1ccc(C(=O)/C=C/c2ccccc2F)c(OC(=O)c2ccc([N+](=O)[O-])cc2)c1
[1]
  CC50: 20.9 µM (active)

## CCOC(=O)C(CC(C)C)NC(=O)C(Cc1ccc(N(CCCl)CCCl)cc1)NC(C)=O (stereo not drawn)
[2]
  GI50: 1.93 µM (inactive)
[3]
  GI50: 1.91 µM (inactive)
[4]
  GI50: 2.2 µM (inactive)

## O=C(C1CCCN(S(=O)(=O)c2cccc3nonc23)C1)N1CCN(c2ccccc2Cl)CC1 (stereo not drawn)
[5]
  IC50: > 100 µM (active)

## O=C(N/N=C/c1ccc(O)c(O)c1)C1CC1
[6]
  IC50: 5.55 µM (active)
[7]
  AC50: 0.127 µM (active)

## O=C(c1ccccc1)c1ccc(Oc2ccc(C(=O)O)c(C(=O)O)c2)cc1
[8]
  IC50: > 100 µM (not active)

## COc1cc(/C=N/NC(=O)c2cccc([N+](=O)[O-])c2)ccc1OCc1ccc(C)cc1
[9]
  AC50: 1.58 µM (inconclusive)
[10]
  AC50: 2.51 µM (inconclusive)

## Cc1cc(C)cc(NC2=C(N)C(=O)c3ccccc3C2=O)c1
[5]
  IC50: 37.3 µM (active)

## Cc1cc(OC(=O)c2ccco2)c2c3c(c(=O)oc2c1)CCCC3
[11]
  EC50: 5.16 µM (active)
[12]
  EC50: > 160 µM (inactive)
[13]
  CC50: 33.1 µM (active)

## Cc1cc2cc(C=O)c(Cl)nc2cc1C
[14]
  AC50: 7.08 µM (inconclusive)
[10]
  AC50: 0.0708 µM (inconclusive)
[15]
  AC50: 10 µM (inconclusive)

## O=C(NNc1ccc([N+](=O)[O-])cn1)Nc1ccc(N=Nc2ccccc2)cc1
[1]
  CC50: 19.4 µM (active)

## COc1ccc(Cc2nnc(N/N=C/c3ccc(O)cc3O)nc2O)cc1OC
[16]
  AC50: 8.28 µM (active)
[5]
  IC50: 1.78 µM (active)

## CCCCC#CS(=O)(=O)C(F)(F)F
[2]
  GI50: 19.7 µM (inactive)
[3]
  GI50: 27.7 µM (inactive)
[4]
  GI50: 51.9 µM (inactive)

## CC1=NOC(=O)/C1=C/c1ccc2c(c1)OCO2
[17]
  IC50: 11.6 µM (active)

## CCCSCC(P(=O)(O)O)P(=O)(O)O.NC1CCCCC1
[2]
  GI50: > 100 µM (inactive)
[3]
  GI50: > 100 µM (inactive)
[4]
  GI50: > 100 µM (inactive)

## CC(SCc1cn2cc(Cl)ccc2n1)C(=O)O (stereo not drawn)
[10]
  AC50: 28.2 µM (inconclusive)

## CCCOc1ccc(CSC(CC(=O)O)C(=O)O)cc1 (stereo not drawn)
[10]
  AC50: 0.224 µM (inconclusive)

## COc1cc(/C=C2\SC(=S)N(C(C(=O)O)c3ccccc3)C2=O)cc(OC)c1OC (stereo not drawn)
[17]
  IC50: > 100 µM (active)

## CCOC(=O)c1cccc(NS(=O)(=O)c2c(C(=O)N3CCCCCC3)c(C)n(C)c2C)c1
[18]
  IC50: > 20 µM (inactive)

## Cn1c(N)c(N2CCN(c3ccccc3)CC2)c(=O)[nH]c1=O
[7]
  AC50: 3.9 µM (active)

## COc1nnc(-c2ccccc2)s1
[19]
  IC50: > 66 µM (inactive)
[20]
  IC50: > 66 µM (inactive)

## CC1CCc2sc(-c3nnc(S)o3)cc2C1 (stereo not drawn)
[7]
  AC50: 1.2 µM (active)

## CC1(C)CC(=O)C(/C=N/CCN2CCN(C(=S)Nc3cccc(Cl)c3)CC2)=C(O)C1
[21]
  EC50: > 350 µM (not active)
[22]
  EC50: > 350 µM (not active)

## COc1cc(OC)c2c(-c3ccccc3)cc(=O)oc2c1C(CCN1CCCC(C)C1)c1ccc(N(C)C)cc1 (stereo not drawn)
[5]
  IC50: 11.4 µM (active)

## O=C(NNC(=O)C1CCN(S(=O)(=O)c2ccc(Cl)cc2)CC1)c1ccc(S(=O)(=O)N2CCCCC2)cc1
[18]
  IC50: > 20 µM (inactive)

## Cc1cccc(N2C(=O)C(Cl)=C(N3CCN(C/C=C/c4ccccc4)CC3)C2=O)c1
[8]
  IC50: > 50 µM (inconclusive)

## Cc1ccc(NC(=O)NNC(=O)c2cc3ccccc3cc2O)cc1C
[11]
  EC50: > 38 µM (not active)
[12]
  EC50: > 160 µM (inactive)

## O=C(NCCCN1CCOCC1)c1ccc2c(=O)n(Cc3cccc(Br)c3)c(=S)[nH]c2c1
[18]
  IC50: > 20 µM (inactive)
